Data published in US20110039721A1, “METHOD FOR PREDICTION ABOUT CARCINOGENICITY OF SUBSTANCE IN RODENT” (Chemicals Evaluation and Research Institute, priority 2007, published 2011).

What was measured:
[1] = classification of the substance (M+/M−); cited from earlier work
[2] = system: liver; conditions: in vivo; cited from earlier work
[3] = system: rodent; conditions: in vivo; cited from earlier work
[4] = system: mRNA expressed from the genes (A) to (D) in rat liver; assay: Behavior of genes (mRNA expression level, oligo-DNA microarray) in rat liver after 28-day oral administration; assay type: in vivo; conditions: for Behavior of gene caused by administration of chemical substance, Gene No. 4846 / Behavior of gene caused by administration of chemical substance, Gene No. 2026 / Behavior of gene caused by administration of chemical substance, Gene No. 4218 / Behavior of gene caused by administration of chemical substance, Gene No. 6182 / Behavior of gene caused by administration of chemical substance, Gene No. 5600: gene group (A); for Behavior of gene caused by administration of chemical substance, Gene No. 4846: Unigene No. Rn.144554; for Behavior of gene caused by administration of chemical substance, Gene No. 2026 / Behavior of gene caused by administration of chemical substance, Gene No. 4218: Unigene No. Rn.167075; for Behavior of gene caused by administration of chemical substance, Gene No. 6182: Unigene No. Rn.5834; for Behavior of gene caused by administration of chemical substance, Gene No. 5600: Unigene No. Rn.9836; for Behavior of gene caused by administration of chemical substance, Gene No. 1494 / Behavior of gene caused by administration of chemical substance, Gene No. 2045 / Behavior of gene caused by administration of chemical substance, Gene No. 2203: gene group (B); for Behavior of gene caused by administration of chemical substance, Gene No. 1494: Unigene No. Rn.1430; for Behavior of gene caused by administration of chemical substance, Gene No. 2045: Unigene No. Rn.19329; for Behavior of gene caused by administration of chemical substance, Gene No. 2203: Unigene No. Rn.21240; for Behavior of gene caused by administration of chemical substance, Gene No. 533 / Behavior of gene caused by administration of chemical substance, Gene No. 725 / Behavior of gene caused by administration of chemical substance, Gene No. 1163 / Behavior of gene caused by administration of chemical substance, Gene No. 4973 / Behavior of gene caused by administration of chemical substance, Gene No. 4095 / Behavior of gene caused by administration of chemical substance, Gene No. 1334 / Behavior of gene caused by administration of chemical substance, Gene No. 6620 / Behavior of gene caused by administration of chemical substance, Gene No. 6303 / Behavior of gene caused by administration of chemical substance, Gene No. 5878 / Behavior of gene caused by administration of chemical substance, Gene No. 1131 / Behavior of gene caused by administration of chemical substance, Gene No. 1562 / Behavior of gene caused by administration of chemical substance, Gene No. 1741 / Behavior of gene caused by administration of chemical substance, Gene No. 893 / Behavior of gene caused by administration of chemical substance, Gene No. 6026 / Behavior of gene caused by administration of chemical substance, Gene No. 154 / Behavior of gene caused by administration of chemical substance, Gene No. 1993 / Behavior of gene caused by administration of chemical substance, Gene No. 813 / Behavior of gene caused by administration of chemical substance, Gene No. 2494 / Behavior of gene caused by administration of chemical substance, Gene No. 2546 / Behavior of gene caused by administration of chemical substance, Gene No. 3776 / Behavior of gene caused by administration of chemical substance, Gene No. 3929 / Behavior of gene caused by administration of chemical substance, Gene No. 1119 / Behavior of gene caused by administration of chemical substance, Gene No. 6742 / Behavior of gene caused by administration of chemical substance, Gene No. 5634: gene group (C); for Behavior of gene caused by administration of chemical substance, Gene No. 533: Unigene No. Rn.106184; for Behavior of gene caused by administration of chemical substance, Gene No. 725: Unigene No. Rn.108075; for Behavior of gene caused by administration of chemical substance, Gene No. 1163: Unigene No. Rn.11766; for Behavior of gene caused by administration of chemical substance, Gene No. 4973: Unigene No. Rn.118529; for Behavior of gene caused by administration of chemical substance, Gene No. 4095: Unigene No. Rn.119024; for Behavior of gene caused by administration of chemical substance, Gene No. 1334 / Behavior of gene caused by administration of chemical substance, Gene No. 6620: Unigene No. Rn.120914; for Behavior of gene caused by administration of chemical substance, Gene No. 6303: Unigene No. Rn.123063; for Behavior of gene caused by administration of chemical substance, Gene No. 5878: Unigene No. Rn.143213; for Behavior of gene caused by administration of chemical substance, Gene No. 1131: Unigene No. Rn.144946; for Behavior of gene caused by administration of chemical substance, Gene No. 1562: Unigene No. Rn.14744; for Behavior of gene caused by administration of chemical substance, Gene No. 1741: Unigene No. Rn.1647; for Behavior of gene caused by administration of chemical substance, Gene No. 893: Unigene No. Rn.164817; for Behavior of gene caused by administration of chemical substance, Gene No. 6026: Unigene No. Rn.167685; for Behavior of gene caused by administration of chemical substance, Gene No. 154: Unigene No. Rn.185941; for Behavior of gene caused by administration of chemical substance, Gene No. 1993: Unigene No. Rn.18728; for Behavior of gene caused by administration of chemical substance, Gene No. 813: Unigene No. Rn.201760; for Behavior of gene caused by administration of chemical substance, Gene No. 2494: Unigene No. Rn.23969; for Behavior of gene caused by administration of chemical substance, Gene No. 2546: Unigene No. Rn.24561; for Behavior of gene caused by administration of chemical substance, Gene No. 3776: Unigene No. Rn.43232; for Behavior of gene caused by administration of chemical substance, Gene No. 3929: Unigene No. Rn.4620; for Behavior of gene caused by administration of chemical substance, Gene No. 1119: Unigene No. Rn.9757; for Behavior of gene caused by administration of chemical substance, Gene No. 6742: Unigene No. Rn.9779; for Behavior of gene caused by administration of chemical substance, Gene No. 5634: Unigene No. Rn.9862; for Behavior of gene caused by administration of chemical substance, Gene No. 5726: gene group (D), Unigene No. Rn.9939
In short: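 Male F344 SPF rats, 5 weeks old, four per group, dosed by oral gavage once daily for 28 days with test chemical or matched-volume solvent. Liver total RNA profiled on oligo-DNA microarray. Change ≥1.5-fold or ≤1/1.5 versus vehicle counted as significant if its direction matched that seen with other carcinogens.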

Structure (SMILES): C=C(C)[C@H]1CC=C(C)CC1 [TS024, D-Limonene]
- Mutagenicity by Ames test [1]: M−

Structure (SMILES): CC(O)CCl (centres unmarked) [TS079, 1-Chloro-2-propanol]
- Liver carcinogenicity [2]: Cr−
- Carcinogenicity [3]: C−
- Behavior of gene caused by administration of chemical substance, Gene No. 4846 [4]: −
- Behavior of gene caused by administration of chemical substance, Gene No. 2026 [4]: −
- Behavior of gene caused by administration of chemical substance, Gene No. 4218 [4]: −
- Behavior of gene caused by administration of chemical substance, Gene No. 6182 [4]: +
- Behavior of gene caused by administration of chemical substance, Gene No. 5600 [4]: −
- Behavior of gene caused by administration of chemical substance, Gene No. 1494 [4]: −
- Behavior of gene caused by administration of chemical substance, Gene No. 2045 [4]: +
- Behavior of gene caused by administration of chemical substance, Gene No. 2203 [4]: +
- Behavior of gene caused by administration of chemical substance, Gene No. 533 [4]: −
- Behavior of gene caused by administration of chemical substance, Gene No. 725 [4]: −
- Behavior of gene caused by administration of chemical substance, Gene No. 1163 [4]: −
- Behavior of gene caused by administration of chemical substance, Gene No. 4973 [4]: −
- Behavior of gene caused by administration of chemical substance, Gene No. 4095 [4]: −
- Behavior of gene caused by administration of chemical substance, Gene No. 1334 [4]: −
- Behavior of gene caused by administration of chemical substance, Gene No. 6620 [4]: −
- Behavior of gene caused by administration of chemical substance, Gene No. 6303 [4]: −
- Behavior of gene caused by administration of chemical substance, Gene No. 5878 [4]: −
- Behavior of gene caused by administration of chemical substance, Gene No. 1131 [4]: −
- Behavior of gene caused by administration of chemical substance, Gene No. 1562 [4]: −
- Behavior of gene caused by administration of chemical substance, Gene No. 1741 [4]: −
- Behavior of gene caused by administration of chemical substance, Gene No. 893 [4]: −
- Behavior of gene caused by administration of chemical substance, Gene No. 6026 [4]: −
- Behavior of gene caused by administration of chemical substance, Gene No. 154 [4]: −
- Behavior of gene caused by administration of chemical substance, Gene No. 1993 [4]: −
- Behavior of gene caused by administration of chemical substance, Gene No. 813 [4]: −
- Behavior of gene caused by administration of chemical substance, Gene No. 2494 [4]: −
- Behavior of gene caused by administration of chemical substance, Gene No. 2546 [4]: −
- Behavior of gene caused by administration of chemical substance, Gene No. 3776 [4]: −
- Behavior of gene caused by administration of chemical substance, Gene No. 3929 [4]: −
- Behavior of gene caused by administration of chemical substance, Gene No. 1119 [4]: −
- Behavior of gene caused by administration of chemical substance, Gene No. 6742 [4]: −
- Behavior of gene caused by administration of chemical substance, Gene No. 5634 [4]: −
- Behavior of gene caused by administration of chemical substance, Gene No. 5726 [4]: +

Structure (SMILES): O=[N+]([O-])c1cccc2ccccc12 [TS083, 1-Nitronaphthalene]
- Liver carcinogenicity [2]: Cr−
- Carcinogenicity [3]: C−
- Behavior of gene caused by administration of chemical substance, Gene No. 4846 [4]: −
- Behavior of gene caused by administration of chemical substance, Gene No. 2026 [4]: +
- Behavior of gene caused by administration of chemical substance, Gene No. 4218 [4]: −
- Behavior of gene caused by administration of chemical substance, Gene No. 6182 [4]: −
- Behavior of gene caused by administration of chemical substance, Gene No. 5600 [4]: −
- Behavior of gene caused by administration of chemical substance, Gene No. 1494 [4]: +
- Behavior of gene caused by administration of chemical substance, Gene No. 2045 [4]: −
- Behavior of gene caused by administration of chemical substance, Gene No. 2203 [4]: −
- Behavior of gene caused by administration of chemical substance, Gene No. 533 [4]: +
- Behavior of gene caused by administration of chemical substance, Gene No. 725 [4]: +
- Behavior of gene caused by administration of chemical substance, Gene No. 1163 [4]: −
- Behavior of gene caused by administration of chemical substance, Gene No. 4973 [4]: +
- Behavior of gene caused by administration of chemical substance, Gene No. 4095 [4]: +
- Behavior of gene caused by administration of chemical substance, Gene No. 1334 [4]: +
- Behavior of gene caused by administration of chemical substance, Gene No. 6620 [4]: +
- Behavior of gene caused by administration of chemical substance, Gene No. 6303 [4]: +
- Behavior of gene caused by administration of chemical substance, Gene No. 5878 [4]: −
- Behavior of gene caused by administration of chemical substance, Gene No. 1131 [4]: −
- Behavior of gene caused by administration of chemical substance, Gene No. 1562 [4]: +
- Behavior of gene caused by administration of chemical substance, Gene No. 1741 [4]: +
- Behavior of gene caused by administration of chemical substance, Gene No. 893 [4]: +
- Behavior of gene caused by administration of chemical substance, Gene No. 6026 [4]: +
- Behavior of gene caused by administration of chemical substance, Gene No. 154 [4]: +
- Behavior of gene caused by administration of chemical substance, Gene No. 1993 [4]: +
- Behavior of gene caused by administration of chemical substance, Gene No. 813 [4]: +
- Behavior of gene caused by administration of chemical substance, Gene No. 2494 [4]: −
- Behavior of gene caused by administration of chemical substance, Gene No. 2546 [4]: +
- Behavior of gene caused by administration of chemical substance, Gene No. 3776 [4]: +
- Behavior of gene caused by administration of chemical substance, Gene No. 3929 [4]: +
- Behavior of gene caused by administration of chemical substance, Gene No. 1119 [4]: +
- Behavior of gene caused by administration of chemical substance, Gene No. 6742 [4]: +
- Behavior of gene caused by administration of chemical substance, Gene No. 5634 [4]: −
- Behavior of gene caused by administration of chemical substance, Gene No. 5726 [4]: −

Structure (SMILES): O=P(OCCCl)(OCCCl)OCCCl [TS088, Tris(2-chloroethyl)phosphate]
- Liver carcinogenicity [2]: Cr−
- Carcinogenicity [3]: C+
- Behavior of gene caused by administration of chemical substance ([4]; rat, in vivo): − and +
